Laboratory results as given in US20220183287A1, “METHODS FOR KILLING PESTS” (The United States of America, as represented by the …, priority 2020, published 2022).
Like-named read-outs stand apart in the source and are kept apart here. Marks after values point to notes of the source that are not given here.

Assays:
Heterodera glycines eggs = assay: Microwell assay: eggs immersed in compounds, hatch and activity of hatched J2; format: in vivo; conditions: for % Active Day 2 / % Active Day 5 / % Active Day 7: J2 hatched from immersed eggs; for inactive J2 that hatched from the eggs: by Day 7; for Hatch Day 2 / Hatch Day 5 / Hatch Day 7: hatched J2 per well, about 35 eggs per well; for pest or weed control at 0.1 %: Heterodera glycines, 168 h, read-out: egg hatch suppression compared with the Tween control
Protocol: (§1) All chemicals were used without further purification.
(§2) These are reported as 0.1% herein.
(§3) The nematodes were then incubated at 26° C. […] Two trials were conducted for each assay.
(§4) The assumptions of the model were checked.

[1] = tested on: M. incognita second-stage juveniles; assay: Microwell assay: previously hatched J2 immersed in compounds, activity and viability; conditions: for mortality at 0.1 %: read-out: nonviable (killed) J2
Protocol: Nematode cultures: As described in Meyer et al. (Meyer, S. L. F., et al., Nematropica, 46: 85-96 (2016)), M. incognita race 1 (originally isolated in Maryland) was maintained in a greenhouse (24° to 29° C.; natural and supplemental lighting combined for a 16-h daylength) on susceptible cayenne pepper (Capsicum annuum) TA-136′ plants. All greenhouse experiments described herein were conducted under the same conditions. Two to three months after pepper plant inoculation, egg masses were picked from roots. Eggs were separated by 5 min immersion in 0.6% sodium hypochlorite, followed by a rinse in sterile distilled water (SDW). To collect second-stage juveniles (J2) for microwell assays, the surface-sterilized eggs were placed in a hatching chamber (Spectra/Mesh Nylon Filter, openings 25-μm-diam.; Spectrum Laboratories Inc., Rancho Dominguez, Calif.) set in an autoclaved dish that was placed on a rotary shaker for 3 days at 35 rpm. For some M. incognita and H. glycines assays, 25 or […] kanamycin monosulfate (Phytotechnology Laboratories, Shawnee Mission, Kans.) was added to the hatching chamber to prevent growth of bacteria. The collected J2 were then rinsed with water to remove the kanamycin monosulfate.
Compounds for the studies were purchased from three different companies: methyl benzoate, CAS Number 93-58-3, ≥99% purity; Tween 20, CAS Number: 9005-64-5; Tween 80, CAS Number: 9005-65-6; ethyl benzoate, CAS Number: 93-89-0, natural, ≥99% purity, FCC, FG; vinyl benzoate, CAS Number: 769-78-8, ≥99% purity; n-propyl benzoate, CAS Number: 2315-68-6, 99% purity; n-butyl benzoate, CAS Number: 136-60-7, 99% purity; benzyl benzoate, CAS Number: 120-51-4, natural, ≥99% purity, FCC, FG; methyl 2-methylbenzoate, CAS Number: 89-71-4, 99% purity; methyl 2-chlorobenzoate, CAS Number: 610-96-8, ≥98% purity; methyl 2-methoxybenzoate, CAS Number: 606-45-1, 99% purity and methyl 2-nitrobenzoate, CAS Number: 606-27-9, 98% purity were purchased from Sigma-Aldrich (St. Louis, Mo.). Compounds, iso-butyl benzoate, CAS Number 120-50-3, >98% purity; n-pentyl benzoate, CAS Number: 2049-96-9, ≥98% purity; and n-hexyl benzoate, CAS Number: 6789-88-4, ≥98% purity were purchased from Alfa Aesar (Tewksbury, Mass.). The compounds methyl 3-methoxybenzoate (methyl m-anisate), CAS Number: 5368-81-0; 97% and methyl 3-methylbenzoate (methyl m-toluate), CAS Number: 99-36-5, 97% purity were purchased from TCI America (Portland, Oreg.). All chemicals were used without further purification. Deionized water (DI) containing 1% emulsifier (v/v), Tween 20 and Tween 80, at 1:1 ratio was used to make different VOCs (volatile organic compounds) water solutions and also used as blank control.
For tests with individual compounds, the concentration of each compound was 0.1% before placement into wells; the final concentration in the wells was 0.095% after addition to eggs or J2 suspended in water. These are reported as 0.1% herein. An exception was Trial 2, M. incognita J2 activity and viability (Table 2): the final concentration was 0.1% after placement in wells. Low concentrations were selected for assays of combined compounds to determine if the combinations would increase nematotoxicity.
Laboratory assays were conducted in 96-well polystyrene plates following general procedures described in Wen et al. (2019). Each well received approximately 35 J2 (for previously hatched J2 assays) or 35 eggs that each contained either a first-stage juvenile (J1) or a J2. The plates were covered with plastic adhesive sealing film (Excel Scientific, Inc., Victorville Calif.) and then with the plate lids. Parafilm (Bemis, Neenah, Wis.) was used to seal the plates. The nematodes were then incubated at 26° C. […] Following the counts on Day 2, the treatments were removed and the J2 rinsed twice with SDW and incubated in the second rinse. […] Two trials were conducted for each assay.

M. incognita eggs = assay: Microwell assay: eggs immersed in compounds, hatch and activity of hatched J2; format: in vivo, Meloidogyne incognita; conditions: 0.1%; for % Active Day 2 / % Active Day 5 / % Active Day 7: J2 hatched from immersed eggs; for Hatch Day 2 / Hatch Day 5 / Hatch Day 7: hatched J2 per well, about 35 eggs per well
Protocol: as §1, §2, §3, §4

M. incognita juveniles = conditions: MB isolated from Buddleja crispa; laboratory assays; cited from earlier work
[2] = 0.1%, previously hatched J2 in aqueous solution
[3] = Meloidogyne incognita, 72 h, read-out: % Viable Day 3 rinsed

CCOC(=O)c1ccccc1 [EB, Ethyl benzoate]
% Active Day 2 (Heterodera glycines eggs; 0.1%): 0 ^e %
% Active Day 5 (Heterodera glycines eggs; 0.1%): 0 ^f %
% Active Day 7 (Heterodera glycines eggs; 0.1%): 0 ^d %
inactive J2 that hatched from the eggs (Heterodera glycines eggs; 0.1%): all J2 that hatched from the eggs were inactive
Hatch Day 2 (Heterodera glycines eggs; 0.1%): 6.7 ^bcd
Hatch Day 5 (Heterodera glycines eggs; 0.1%): 6.8 ^bcd
Hatch Day 7 (Heterodera glycines eggs; 0.1%): 6.6 ^bcd
% Active Day 2 ([1]; 0.025% final concentration): 42.9 ^bc %
% Active Day 1 [1, 2]: 0 ^f %
% Active Day 2 [1, 2]: 0 ^d %
viability at 0.025 % [1, 3]: 80.2%
viability at 0.1 % [1, 3]: 0%
mortality at 0.1 % ([1]; Meloidogyne incognita, 72 h): 100%
% Active Day 2 (M. incognita eggs): 0 ^c %
% Active Day 5 (M. incognita eggs): 0 ^e %
% Active Day 7 (M. incognita eggs): 0 ^c %
Hatch Day 2 (M. incognita eggs): 2.4 ^cd
Hatch Day 5 (M. incognita eggs): 3.9 ^cde
Hatch Day 7 (M. incognita eggs): 4.3 ^de

COC(=O)c1ccccc1 [MB, Methyl benzoate]
% Active Day 2 (Heterodera glycines eggs; 0.1%): 0 ^e %
% Active Day 5 (Heterodera glycines eggs; 0.1%): 0 ^f %
% Active Day 7 (Heterodera glycines eggs; 0.1%): 0 ^d %
inactive J2 that hatched from the eggs (Heterodera glycines eggs; 0.1%): all J2 that hatched from the eggs were inactive
Hatch Day 2 (Heterodera glycines eggs; 0.1%): 5.4 ^cd
Hatch Day 5 (Heterodera glycines eggs; 0.1%): 5.6 ^cd
Hatch Day 7 (Heterodera glycines eggs; 0.1%): 5.5 ^cd
pest or weed control at 0.1 % (Heterodera glycines eggs): 64 to 80%
% Active Day 2 ([1]; 0.0095% final concentration): 22.4 ^d %
% Active Day 1 [1, 2]: 0 ^f %
% Active Day 2 [1, 2]: 0 ^d %
viability at 0.0095 % [1, 3]: 75.6%
viability at 0.1 % [1, 3]: 0%
mortality at 0.1 % ([1]; Meloidogyne incognita, 72 h): 100%
nematocidal activity (M. incognita juveniles): demonstrated nematocidal activity
% Active Day 2 (M. incognita eggs): 0 ^c %
% Active Day 5 (M. incognita eggs): 0 ^e %
% Active Day 7 (M. incognita eggs): 0 ^c %
Hatch Day 2 (M. incognita eggs): 2.2 ^cd
Hatch Day 5 (M. incognita eggs): 3.8 ^cde
Hatch Day 7 (M. incognita eggs): 4.7 ^de

COC(=O)c1cccc(C)c1 [M3MB, Methyl 3-methylbenzoate]
% Active Day 2 (Heterodera glycines eggs; 0.1%): 0 ^e %
% Active Day 5 (Heterodera glycines eggs; 0.1%): 0 ^f %
% Active Day 7 (Heterodera glycines eggs; 0.1%): 0 ^d %
inactive J2 that hatched from the eggs (Heterodera glycines eggs; 0.1%): all J2 that hatched from the eggs were inactive
Hatch Day 2 (Heterodera glycines eggs; 0.1%): 5.2 ^cd
Hatch Day 5 (Heterodera glycines eggs; 0.1%): 5.4 ^cd
Hatch Day 7 (Heterodera glycines eggs; 0.1%): 5.1 ^cd
pest or weed control at 0.1 % (Heterodera glycines eggs; 0.1%, Day 7): 64 to 80%
% Active Day 2 ([1]; 0.015% final concentration): 66.8 ^ab %
% Active Day 1 [1, 2]: 0 ^f %
% Active Day 2 [1, 2]: 0 ^d %
viability at 0.015 % [1, 3]: 63.7%
viability at 0.1 % [1, 3]: 0%
mortality at 0.1 % ([1]; Meloidogyne incognita, 72 h): 100%
% Active Day 2 (M. incognita eggs): 0 ^c %
% Active Day 5 (M. incognita eggs): 0 ^e %
% Active Day 7 (M. incognita eggs): 0 ^c %
Hatch Day 2 (M. incognita eggs): 1.9 ^cd
Hatch Day 5 (M. incognita eggs): 2.7 ^cde
Hatch Day 7 (M. incognita eggs): 2.9 ^de

C=COC(=O)c1ccccc1 [VB, Vinyl benzoate]
hatch suppression compared to the Tween control (Heterodera glycines eggs; 0.1%, Day 2): 76%
% Active Day 2 (Heterodera glycines eggs; 0.1%): 0 ^e %
% Active Day 5 (Heterodera glycines eggs; 0.1%): 0 ^f %
% Active Day 7 (Heterodera glycines eggs; 0.1%): 1 ^d %
inactive J2 that hatched from the eggs (Heterodera glycines eggs; 0.1%): all J2 that hatched from the eggs were inactive
Hatch Day 2 (Heterodera glycines eggs; 0.1%): 3.5 ^d
Hatch Day 5 (Heterodera glycines eggs; 0.1%): 3.5 ^d
Hatch Day 7 (Heterodera glycines eggs; 0.1%): 3.4 ^d
pest or weed control at 0.1 % (Heterodera glycines eggs; 0.1%, Day 7): 80%
% Active Day 2 ([1]; 0.008% final concentration, Trial 2 only): 22.4 ^cd %
% Active Day 1 [1, 2]: 0 ^f %
% Active Day 2 [1, 2]: 0 ^d %
viability at 0.0008 % [1, 3]: 89.6%
viability at 0.008 % [1, 3]: 43.1%
viability at 0.1 % [1, 3]: 1%
mortality at 0.1 % ([1]; Meloidogyne incognita, 72 h): 100%
% Viable Day 3 rinsed ([1]; in vivo): did not result in a significant reduction
% Active Day 2 (M. incognita eggs): 0 ^c %
% Active Day 5 (M. incognita eggs): 0 ^e %
% Active Day 7 (M. incognita eggs): 0 ^c %
Hatch Day 2 (M. incognita eggs): 2.7 ^cd
Hatch Day 5 (M. incognita eggs): 2.9 ^cde
Hatch Day 7 (M. incognita eggs): 2.8 ^de
